Results taken from patent US20170312293A1, “ANTIMICROBIAL WATER DISPERSIBLE COMPOSITION COMPRISING ZINC PYRITHIONE” (KOLON LIFE SCIENCE, INC., priority 2014, published 2017).
Counter-ions that a name gives are not always drawn.

Experiments:
[1] = Stability of zinc pyrithione aqueous dispersion: layer separation degree via centrifugation, naked eye; type: physicochemical; details: zinc pyrithione aqueous dispersion including the antiseptic, layer separation degree (supernatant height / total height) via centrifugation
Method: (§1) First, a zinc pyrithione aqueous dispersion including an antiseptic which was identified to have antiseptic activity was prepared and then stored at room temperature (R.T.), at a temperature ranging from 10° C. to 20° C., or 60° C., and variation in physical properties related to stability and dispersibility were checked.
(§2) Variation in physical properties was determined depending on whether or not assay, viscosity, pH and particle size were changed, and variation in dispersibility was determined by checking layer separation degree using centrifugation and measuring dispersion stability using Turbiscan for detecting particle size variation and phase separation.
Stability was evaluated by checking a layer separation degree (production of supernatant) using centrifugation by the naked eye and was divided into grades based on the proportion of the height of the layer-separated supernatant with respect to the total height of the sample. With respect to the grades, layer separation degree (production of supernatant) of less than 5% was regarded as “high”, layer separation degree of 10% or less was regarded as “medium-high”, layer separation degree of 15% or less was regarded as “medium”, layer separation degree of 20% or less was regarded as “medium-low” and layer separation degree of higher than 20% was regarded as “low”.

Escherichia coli = test: Challenge test (antibiotic activity) against E. coli; type: cell-based; details: day on which all strains completely died; inoculum 1.0×10^6 cells/ml, 37° C., sampling days 1, 2, 3, 7; sample without zinc pyrithione, pH 5.5 to 9.0
Method: (§3) Respective samples were inoculated with three kinds of bacteria and two kinds of fungus and cultured for 7 days in order to measure antibiotic activity. On the first, second, third and seventh days, sampling was conducted, the sample was spread on a solid medium and antibiotic activity was checked. Strains used to measure antibiotic activity were Escherichia coli, Staphylococcus aureus, Pseudomonas aeruginosa for bacteria, and Candida albicans and Aspergillus niger for fungus. Regarding the media used respectively for the strains, TSA (tryptic soy agar) and NB (nutrient broth) were used for the three types of bacteria, and SDA (Sabouraud dextrose agar) and YM (yeast extract and malt extract) were used for Candida albicans (C. albicans), and SDA (Sabouraud dextrose agar) and MD (malt extract and dextrose) were used for Aspergillus niger (A. niger).
(§4) Antibiotic activity was evaluated based on the day on which all strains completely died, rather than lived and grew in the sample spread on the solid medium. First day death was considered to be excellent, second day death was considered to be good, third day death was considered to be medium, seventh day death was considered to be bad and no death until the seventh day was considered to be extremely bad.
(§5) A more detailed test method is as follows. […] 50 g of an aqueous dispersion supplemented with a suitable concentration of antibiotic agent was added to the container to prepare a sample. In consideration of the test method, in order to test zinc pyrithione having antibiotic activity, antibiotic activity of zinc pyrithione was preferably removed using a neutralization agent, but water was inevitably used to adjust a predetermined volume without adding zinc pyrithione due to absence of a suitable neutralization agent.
(§6) The prepared sample was inoculated with 1.0×10^6 cells/ml of E. coli, S. aureus and P. aeruginosa, and with 1.0×10^5 cells/ml of C. albicans and A. niger. Then, E. coli, S. aureus and P. aeruginosa were cultured at 37° C., while C. albicans and A. niger were cultured at 30° C. At the point of times of 1, 2, 3 and 7 days after culture, […] of the sample was obtained and spread on a solid medium and E. coli, S. aureus and P. aeruginosa were then cultured at 37° C. for 1 day for, and C. albicans and A. niger were cultured at 30° C. for 2 days. Then, whether the strains were alive or dead was checked. The respective antiseptics were used with reference to optimal pH, dosage and MIC recommended by the company of manufacture, wherein the test pH conditions were pH 5.5 to 9.0 at which zinc pyrithione was stable.

Staphylococcus aureus = test: Challenge test (antibiotic activity) against S. aureus; type: cell-based; details: day on which all strains completely died; inoculum 1.0×10^6 cells/ml, 37° C., sampling days 1, 2, 3, 7; sample without zinc pyrithione, pH 5.5 to 9.0
Method: as §3, §4, §5, §6

Pseudomonas aeruginosa = test: Challenge test (antibiotic activity) against P. aeruginosa; type: cell-based; details: day on which all strains completely died; inoculum 1.0×10^6 cells/ml, 37° C., sampling days 1, 2, 3, 7; sample without zinc pyrithione, pH 5.5 to 9.0
Method: as §3, §4, §5, §6

Candida albicans = test: Challenge test (antibiotic activity) against C. albicans; type: cell-based; details: day on which all strains completely died; inoculum 1.0×10^5 cells/ml, 30° C., sampling days 1, 2, 3, 7; sample without zinc pyrithione, pH 5.5 to 9.0
Method: as §3, §4, §5, §6

Aspergillus niger = test: Challenge test (antibiotic activity) against A. niger; type: cell-based; details: for Challenge test A. niger (antibiotic activity grade): day on which all strains completely died, inoculum 1.0×10^5 cells/ml, 30° C., sampling days 1, 2, 3, 7, sample without zinc pyrithione, pH 5.5 to 9.0
Method: as §3, §4, §5, §6

[2] = Dispersion stability by Turbiscan (Turbiscan stability index); type: physicochemical; details: zinc pyrithione aqueous dispersion with the antiseptic stored at 60° C. for 2 weeks, lower = more stable, 0 = no variation
Method: as §1, §2
Meanwhile, from the result of determination of stability via separate testing of the zinc pyrithione aqueous dispersion composition using the Turbiscan, it could seen that the result obtained by storing at 60° C. for 2 weeks was similar to the result obtained by storing at room temperature for 3 months. Therefore, stability of the zinc pyrithione aqueous dispersion was compared based on stability index (Turbiscan stability index) associated with the result obtained by storing the test subject substances at 60° C. for 2 weeks.
In addition, the stability of conventionally used antiseptics was measured as Turbiscan-related stability and the result thus obtained is shown as a stability index in the following Table 2. […]

With `CCCCC(O)CO` (stereo not shown) [1,2-hexanediol] the “Stability of zinc pyrithione aqueous dispersion” value [1] was “Medium (layer separation degree of 15% or less was regarded as “medium”)”.
For `CCCCCCC(O)CO` (stereo not shown) [1,2-octanediol], the “Stability of zinc pyrithione aqueous dispersion” value [1] was “Medium (layer separation degree of 15% or less was regarded as “medium”)”.
In the case of `OCc1ccccc1` [Benzyl alcohol], the “Stability of zinc pyrithione aqueous dispersion” value [1] is reported as “Medium-low (layer separation degree of 20% or less was regarded as “medium-low”)”.
With `CC1(C)C(=O)N(CO)C(=O)N1CO` [DMDMH, dimethylol dimethylhydantoin, reference compound] the “Challenge test E. coli (antibiotic activity grade)” value (“Challenge test E. coli” for short) (Escherichia coli) was “Excellent (First day death was considered to be excellent)”, the “Challenge test S. aureus (antibiotic activity grade)” value (“Challenge test S. aureus” for short) (Staphylococcus aureus) was “Excellent (First day death was considered to be excellent)” and the “Challenge test P. aeruginosa (antibiotic activity grade)” value (shortened to “Challenge test P. aeruginosa”) (Pseudomonas aeruginosa) was “Excellent (First day death was considered to be excellent)”. For the same compound, the “Challenge test C. albicans (antibiotic activity grade)” value (“Challenge test C. albicans” below) (Candida albicans) was “Excellent (First day death was considered to be excellent)”, the “Challenge test A. niger (antibiotic activity grade)” value (“Challenge test A. niger” for short) (Aspergillus niger) was “Excellent (First day death was considered to be excellent)” and the “Stability of zinc pyrithione aqueous dispersion” value [1] was “High (layer separation degree (production of supernatant) of less than 5% was regarded as “high”)”. The “Stability index at 60° C. × 2 weeks” value [2] was 3.9.
With `Cn1sccc1=O` [MIT, methylisothiazolinone, reference compound] the “Challenge test E. coli” value (Escherichia coli) was “Excellent (First day death was considered to be excellent)”, the “Challenge test S. aureus” value (Staphylococcus aureus) was “Excellent (First day death was considered to be excellent)” and the “Challenge test P. aeruginosa” value (Pseudomonas aeruginosa) was “Excellent (First day death was considered to be excellent)”. For the same compound, the “Challenge test C. albicans” value (Candida albicans) was “Excellent (First day death was considered to be excellent)”, the “Challenge test A. niger” value (Aspergillus niger) was “Excellent (First day death was considered to be excellent)” and the “Stability of zinc pyrithione aqueous dispersion” value [1] was “High (layer separation degree (production of supernatant) of less than 5% was regarded as “high”)”. For the same compound, the “Stability index at 60° C. × 2 weeks” value [2] was 3.9.
For `C/C=C/C=C/C(=O)[O-].[K+]` [Potassium sorbate], the “Challenge test E. coli” value (Escherichia coli) was “Good (second day death was considered to be good)”, the “Challenge test S. aureus” value (Staphylococcus aureus) was “Good (second day death was considered to be good)” and the “Challenge test P. aeruginosa” value (Pseudomonas aeruginosa) was “Good (second day death was considered to be good)”. For the same compound, the “Challenge test A. niger” value (Aspergillus niger) was “Good (second day death was considered to be good)”.
With `O=C([O-])c1ccccc1.[Na+]` [Sodium benzoate] the “Challenge test E. coli” value (Escherichia coli) was “Good (second day death was considered to be good)”, the “Challenge test S. aureus” value (Staphylococcus aureus) was “Good (second day death was considered to be good)” and the “Challenge test P. aeruginosa” value (Pseudomonas aeruginosa) was “Good (second day death was considered to be good)”. For the same compound, the “Challenge test A. niger” value (Aspergillus niger) was “Good (second day death was considered to be good)”.
In the case of `O=S([O-])S(=O)(=O)[O-].[Na+].[Na+]` [Sodium metabisulfite], the “Challenge test E. coli” value (Escherichia coli) is reported as “Good (second day death was considered to be good)”, the “Challenge test S. aureus” value (Staphylococcus aureus) is reported as “Good (second day death was considered to be good)” and the “Challenge test P. aeruginosa” value (Pseudomonas aeruginosa) is reported as “Good (second day death was considered to be good)”. For the same compound, the “Challenge test A. niger” value (Aspergillus niger) was “Good (second day death was considered to be good)”.
With `O=C([O-])c1ccccc1O.[Na+]` [Sodium salicylate] the “Challenge test E. coli” value (Escherichia coli) was “Good (second day death was considered to be good)”, the “Challenge test S. aureus” value (Staphylococcus aureus) was “Good (second day death was considered to be good)” and the “Challenge test P. aeruginosa” value (Pseudomonas aeruginosa) was “Good (second day death was considered to be good)”. The “Challenge test A. niger” value (Aspergillus niger) was “Good (second day death was considered to be good)”.
With `O=S([O-])[O-].[Na+].[Na+]` [Sodium sulfite] the “Challenge test E. coli” value (Escherichia coli) was “Good (second day death was considered to be good)”, the “Challenge test S. aureus” value (Staphylococcus aureus) was “Good (second day death was considered to be good)” and the “Challenge test P. aeruginosa” value (Pseudomonas aeruginosa) was “Good (second day death was considered to be good)”. The “Challenge test A. niger” value (Aspergillus niger) was “Good (second day death was considered to be good)” and the “Stability of zinc pyrithione aqueous dispersion” value [1] was “High (layer separation degree (production of supernatant) of less than 5% was regarded as “high”)”.
For `Cc1ncc(C[n+]2csc(CCO)c2C)c(N)n1` [Thiamine dilauryl sulfate, thiamine dilauryl sulphate], the “Challenge test E. coli” value (Escherichia coli) was “Good (second day death was considered to be good)”, the “Challenge test S. aureus” value (Staphylococcus aureus) was “Excellent (First day death was considered to be excellent)” and the “Challenge test P. aeruginosa” value (Pseudomonas aeruginosa) was “Good (second day death was considered to be good)”. For the same compound, the “Challenge test C. albicans” value (Candida albicans) was “Good (second day death was considered to be good)”, the “Antibiotic activity to A. niger” value (Aspergillus niger; conclusion in words from the challenge test) was “vulnerable” and the “Challenge test A. niger” value (Aspergillus niger) was “Bad (seventh day death was considered to be bad)”.
In the case of Ethylhexyl glycerin, the “Challenge test E. coli” value (Escherichia coli) is reported as “Good (second day death was considered to be good)”, the “Challenge test S. aureus” value (Staphylococcus aureus) is reported as “Good (second day death was considered to be good)” and the “Challenge test P. aeruginosa” value (Pseudomonas aeruginosa) is reported as “Extremely bad (no death until the seventh day was considered to be extremely bad)”. The “Challenge test C. albicans” value (Candida albicans) was “Good (second day death was considered to be good)” and the “Challenge test A. niger” value (Aspergillus niger) was “Medium (third day death was considered to be medium)”.
